Results reported in ChEMBL document CHEMBL6092162, “Identification of novel and potent triazoles targeting CYP51 for antifungal: Design, synthesis, and biological study” (Eur J Med Chem, 2024).
≈ marks a conversion by molar mass, not a printed value.

Assays:
Type in all cases: functional
Nakaseomyces glabratus = assay: Antifungal activity against Candida glabrata assessed as inhibition of fungal growth by CLSI M27-A3 guidelines based method
Candida parapsilosis = assay: Antifungal activity against Candida parapsilosis GIM 2.190 assessed as inhibition of fungal growth by CLSI M27-A3 guidelines based method; conditions: Lodderomyces parapsilosis
Cryptococcus neoformans = assay: Antifungal activity against Cryptococcus neoformans CGMCC 2.3161 assessed as inhibition of fungal growth by CLSI M27-A3 guidelines based method
Candida tropicalis = assay: Antifungal activity against Candida tropicalis GIM 2.183 assessed as inhibition of fungal growth by CLSI M27-A3 guidelines based method
Candida albicans [1] = assay: Antifungal activity against Candida albicans SC5314 assessed as inhibition of fungal growth by CLSI M27-A3 guidelines based method
Candida albicans [2] = assay: Antifungal activity against Candida albicans GIM 2.194 assessed as inhibition of fungal growth by CLSI M27-A3 guidelines based method
Pichia kudriavzevii = assay: Antifungal activity against Candida krusei GIM 2.1 assessed as inhibition of fungal growth by CLSI M27-A3 guidelines based method

CC(C)c1ccc(CN2CCN(c3ccc(CN(C)CC(O)(Cn4cncn4)c4ccc(F)cc4F)cc3)CC2)cc1 (centres undefined)
MIC80 (Nakaseomyces glabratus): 0.4 µg/mL (≈ 0.696 µM) | MIC80 (Candida parapsilosis): 0.013 µg/mL (≈ 0.0226 µM) | MIC80 (Cryptococcus neoformans): 0.1 µg/mL (≈ 0.174 µM) | MIC80 (Candida tropicalis): 0.25 µg/mL (≈ 0.435 µM) | MIC80 (Candida albicans [1]): 0.013 µg/mL (≈ 0.0226 µM) | MIC80 (Candida albicans [2]): 0.013 µg/mL (≈ 0.0226 µM)

CN(Cc1ccc(N2CCN(C(=O)c3ccccc3)CC2)cc1)CC(O)(Cn1cncn1)c1ccc(F)cc1F (centres undefined)
MIC80 (Nakaseomyces glabratus): 1.6 µg/mL (≈ 2.93 µM) | MIC80 (Candida parapsilosis): 0.025 µg/mL (≈ 0.0457 µM) | MIC80 (Cryptococcus neoformans): 0.4 µg/mL (≈ 0.732 µM) | MIC80 (Candida tropicalis): 0.013 µg/mL (≈ 0.0238 µM) | MIC80 (Candida albicans [1]): 0.025 µg/mL (≈ 0.0457 µM) | MIC80 (Candida albicans [2]): 0.013 µg/mL (≈ 0.0238 µM) | MIC80 (Pichia kudriavzevii): 1.6 µg/mL (≈ 2.93 µM)

CN(Cc1ccc(N2CCN(Cc3cc(Br)ccc3Br)CC2)cc1)CC(O)(Cn1cncn1)c1ccc(F)cc1F (centres undefined)
MIC80 (Nakaseomyces glabratus): 0.1 µg/mL (≈ 0.145 µM) | MIC80 (Candida parapsilosis): 0.006 µg/mL (≈ 0.00869 µM) | MIC80 (Candida tropicalis): 0.006 µg/mL (≈ 0.00869 µM) | MIC80 (Candida albicans [1]): 0.013 µg/mL (≈ 0.0188 µM) | MIC80 (Candida albicans [2]): 0.025 µg/mL (≈ 0.0362 µM) | MIC80 (Pichia kudriavzevii): 0.1 µg/mL (≈ 0.145 µM)

CN(Cc1ccc(N2CCN(Cc3ccc([N+](=O)[O-])cc3)CC2)cc1)CC(O)(Cn1cncn1)c1ccc(F)cc1F (centres undefined)
MIC80 (Nakaseomyces glabratus): 1.6 µg/mL (≈ 2.77 µM) | MIC80 (Candida parapsilosis): 0.025 µg/mL (≈ 0.0433 µM) | MIC80 (Cryptococcus neoformans): 0.1 µg/mL (≈ 0.173 µM) | MIC80 (Candida tropicalis): 0.025 µg/mL (≈ 0.0433 µM) | MIC80 (Candida albicans [1]): 0.025 µg/mL (≈ 0.0433 µM) | MIC80 (Candida albicans [2]): 0.05 µg/mL (≈ 0.0866 µM) | MIC80 (Pichia kudriavzevii): 0.4 µg/mL (≈ 0.692 µM)

C#Cc1ccc(CN2CCN(c3ccc(CN(C)CC(O)(Cn4cncn4)c4ccc(F)cc4F)cc3)CC2)cc1 (centres undefined)
MIC80 (Nakaseomyces glabratus): 3.2 µg/mL (≈ 5.75 µM) | MIC80 (Candida parapsilosis): 0.4 µg/mL (≈ 0.719 µM) | MIC80 (Cryptococcus neoformans): 3.2 µg/mL (≈ 5.75 µM) | MIC80 (Candida tropicalis): 0.1 µg/mL (≈ 0.18 µM) | MIC80 (Candida albicans [1]): 0.1 µg/mL (≈ 0.18 µM) | MIC80 (Candida albicans [2]): 0.2 µg/mL (≈ 0.359 µM) | MIC80 (Pichia kudriavzevii): 3.2 µg/mL (≈ 5.75 µM)

CN(Cc1ccc(N2CCN(Cc3cccc(I)c3)CC2)cc1)CC(O)(Cn1cncn1)c1ccc(F)cc1F (centres undefined)
MIC80 (Nakaseomyces glabratus): 0.4 µg/mL (≈ 0.607 µM) | MIC80 (Candida parapsilosis): 0.025 µg/mL (≈ 0.038 µM) | MIC80 (Candida tropicalis): 0.013 µg/mL (≈ 0.0197 µM) | MIC80 (Candida albicans [1]): 0.25 µg/mL (≈ 0.38 µM) | MIC80 (Candida albicans [2]): 0.025 µg/mL (≈ 0.038 µM) | MIC80 (Pichia kudriavzevii): 0.2 µg/mL (≈ 0.304 µM)

CN(Cc1ccc(N2CCN(Cc3ccc(I)cc3)CC2)cc1)CC(O)(Cn1cncn1)c1ccc(F)cc1F (centres undefined)
MIC80 (Nakaseomyces glabratus): 0.2 µg/mL (≈ 0.304 µM) | MIC80 (Candida parapsilosis): 0.1 µg/mL (≈ 0.152 µM) | MIC80 (Cryptococcus neoformans): 0.1 µg/mL (≈ 0.152 µM) | MIC80 (Candida tropicalis): 0.05 µg/mL (≈ 0.0759 µM) | MIC80 (Candida albicans [1]): 0.025 µg/mL (≈ 0.038 µM) | MIC80 (Candida albicans [2]): 0.013 µg/mL (≈ 0.0197 µM) | MIC80 (Pichia kudriavzevii): 0.1 µg/mL (≈ 0.152 µM)

CN(Cc1ccc(N2CCN(Cc3cccc(F)c3)CC2)cc1)CC(O)(Cn1cncn1)c1ccc(F)cc1F (centres undefined)
MIC80 (Nakaseomyces glabratus): 1.6 µg/mL (≈ 2.91 µM) | MIC80 (Candida parapsilosis): 0.025 µg/mL (≈ 0.0454 µM) | MIC80 (Cryptococcus neoformans): 0.4 µg/mL (≈ 0.726 µM) | MIC80 (Candida tropicalis): 0.025 µg/mL (≈ 0.0454 µM) | MIC80 (Candida albicans [1]): 0.05 µg/mL (≈ 0.0908 µM) | MIC80 (Candida albicans [2]): 0.025 µg/mL (≈ 0.0454 µM) | MIC80 (Pichia kudriavzevii): 0.4 µg/mL (≈ 0.726 µM)

CC(C)N1CCN(c2ccc(CN(C)CC(O)(Cn3cncn3)c3ccc(F)cc3F)cc2)CC1 (centres undefined)
MIC80 (Nakaseomyces glabratus): > 32 µg/mL | MIC80 (Candida parapsilosis): 4 µg/mL (≈ 8.25 µM) | MIC80 (Cryptococcus neoformans): > 32 µg/mL | MIC80 (Candida tropicalis): 2 µg/mL (≈ 4.13 µM) | MIC80 (Candida albicans [1]): 4 µg/mL (≈ 8.25 µM) | MIC80 (Candida albicans [2]): 8 µg/mL (≈ 16.5 µM) | MIC80 (Pichia kudriavzevii): > 32 µg/mL

CN(Cc1ccc(N2CCN(Cc3cc(Cl)ccc3Br)CC2)cc1)CC(O)(Cn1cncn1)c1ccc(F)cc1F (centres undefined)
MIC80 (Nakaseomyces glabratus): 0.2 µg/mL (≈ 0.31 µM) | MIC80 (Candida parapsilosis): 0.006 µg/mL (≈ 0.00929 µM) | MIC80 (Cryptococcus neoformans): 0.1 µg/mL (≈ 0.155 µM) | MIC80 (Candida tropicalis): 0.006 µg/mL (≈ 0.00929 µM) | MIC80 (Candida albicans [1]): 0.013 µg/mL (≈ 0.0201 µM) | MIC80 (Candida albicans [2]): 0.013 µg/mL (≈ 0.0201 µM) | MIC80 (Pichia kudriavzevii): 0.2 µg/mL (≈ 0.31 µM)

CN(Cc1ccc(N2CCN(Cc3ccc(C#N)cc3)CC2)cc1)CC(O)(Cn1cncn1)c1ccc(F)cc1F (centres undefined)
MIC80 (Nakaseomyces glabratus): 1.6 µg/mL (≈ 2.87 µM) | MIC80 (Candida parapsilosis): 0.1 µg/mL (≈ 0.179 µM) | MIC80 (Cryptococcus neoformans): 0.2 µg/mL (≈ 0.359 µM) | MIC80 (Candida tropicalis): 0.05 µg/mL (≈ 0.0897 µM) | MIC80 (Candida albicans [1]): 0.05 µg/mL (≈ 0.0897 µM) | MIC80 (Candida albicans [2]): 0.05 µg/mL (≈ 0.0897 µM) | MIC80 (Pichia kudriavzevii): 1.6 µg/mL (≈ 2.87 µM)

CN(Cc1ccc(N2CCN(Cc3c(Br)cccc3Br)CC2)cc1)CC(O)(Cn1cncn1)c1ccc(F)cc1F (centres undefined)
MIC80 (Nakaseomyces glabratus): 0.1 µg/mL (≈ 0.145 µM) | MIC80 (Candida parapsilosis): 0.006 µg/mL (≈ 0.00869 µM) | MIC80 (Candida tropicalis): 0.006 µg/mL (≈ 0.00869 µM) | MIC80 (Candida albicans [1]): 0.013 µg/mL (≈ 0.0188 µM) | MIC80 (Candida albicans [2]): 0.006 µg/mL (≈ 0.00869 µM) | MIC80 (Pichia kudriavzevii): 0.1 µg/mL (≈ 0.145 µM)

Cc1ccc(CN2CCN(c3ccc(CN(C)CC(O)(Cn4cncn4)c4ccc(F)cc4F)cc3)CC2)cc1 (centres undefined)
MIC80 (Nakaseomyces glabratus): 1.6 µg/mL (≈ 2.93 µM) | MIC80 (Candida parapsilosis): 0.4 µg/mL (≈ 0.732 µM) | MIC80 (Cryptococcus neoformans): 3.2 µg/mL (≈ 5.85 µM) | MIC80 (Candida tropicalis): 0.2 µg/mL (≈ 0.366 µM) | MIC80 (Candida albicans [1]): 0.2 µg/mL (≈ 0.366 µM) | MIC80 (Candida albicans [2]): 0.2 µg/mL (≈ 0.366 µM) | MIC80 (Pichia kudriavzevii): 0.8 µg/mL (≈ 1.46 µM)

CN(Cc1ccc(N2CCN(Cc3ccc(N)cc3)CC2)cc1)CC(O)(Cn1cncn1)c1ccc(F)cc1F (centres undefined)
MIC80 (Nakaseomyces glabratus): 3.2 µg/mL (≈ 5.84 µM) | MIC80 (Candida parapsilosis): 3.2 µg/mL (≈ 5.84 µM) | MIC80 (Cryptococcus neoformans): 3.2 µg/mL (≈ 5.84 µM) | MIC80 (Candida tropicalis): 1.6 µg/mL (≈ 2.92 µM) | MIC80 (Candida albicans [1]): 1.6 µg/mL (≈ 2.92 µM) | MIC80 (Candida albicans [2]): 3.2 µg/mL (≈ 5.84 µM) | MIC80 (Pichia kudriavzevii): 3.2 µg/mL (≈ 5.84 µM)

CN(Cc1ccc(N2CCN(Cc3ccc(S(C)(=O)=O)cc3)CC2)cc1)CC(O)(Cn1cncn1)c1ccc(F)cc1F (centres undefined)
MIC80 (Nakaseomyces glabratus): 3.2 µg/mL (≈ 5.24 µM) | MIC80 (Candida parapsilosis): 0.8 µg/mL (≈ 1.31 µM) | MIC80 (Cryptococcus neoformans): 3.2 µg/mL (≈ 5.24 µM) | MIC80 (Candida tropicalis): 0.4 µg/mL (≈ 0.655 µM) | MIC80 (Candida albicans [1]): 0.4 µg/mL (≈ 0.655 µM) | MIC80 (Candida albicans [2]): 0.8 µg/mL (≈ 1.31 µM) | MIC80 (Pichia kudriavzevii): 3.2 µg/mL (≈ 5.24 µM)

COc1ccc(CN2CCN(c3ccc(CN(C)CC(O)(Cn4cncn4)c4ccc(F)cc4F)cc3)CC2)cc1 (centres undefined)
MIC80 (Nakaseomyces glabratus): 3.2 µg/mL (≈ 5.69 µM) | MIC80 (Candida parapsilosis): 0.1 µg/mL (≈ 0.178 µM) | MIC80 (Cryptococcus neoformans): 0.8 µg/mL (≈ 1.42 µM) | MIC80 (Candida tropicalis): 0.2 µg/mL (≈ 0.355 µM) | MIC80 (Candida albicans [1]): 0.5 µg/mL (≈ 0.889 µM) | MIC80 (Candida albicans [2]): 0.1 µg/mL (≈ 0.178 µM) | MIC80 (Pichia kudriavzevii): 0.8 µg/mL (≈ 1.42 µM)

CN(Cc1ccc(N2CCN(Cc3c(Cl)cccc3Br)CC2)cc1)CC(O)(Cn1cncn1)c1ccc(F)cc1F (centres undefined)
MIC80 (Nakaseomyces glabratus): 0.2 µg/mL (≈ 0.31 µM) | MIC80 (Candida parapsilosis): 0.006 µg/mL (≈ 0.00929 µM) | MIC80 (Candida tropicalis): 0.006 µg/mL (≈ 0.00929 µM) | MIC80 (Candida albicans [1]): 0.013 µg/mL (≈ 0.0201 µM) | MIC80 (Candida albicans [2]): 0.025 µg/mL (≈ 0.0387 µM) | MIC80 (Pichia kudriavzevii): 0.1 µg/mL (≈ 0.155 µM)
